These results are taken from US20040038222A1 (priority 2001, published 2004).

The subject of experiment [1] is C57BL/6J and C3H/HeJ primary bone marrow-derived macrophages.
Experiment [2] has as its system KiflC in NIH3T3 cells. As to conditions: cited from earlier work.

KiflC in NIH3T3 cells, sequence (O35071 whole entry): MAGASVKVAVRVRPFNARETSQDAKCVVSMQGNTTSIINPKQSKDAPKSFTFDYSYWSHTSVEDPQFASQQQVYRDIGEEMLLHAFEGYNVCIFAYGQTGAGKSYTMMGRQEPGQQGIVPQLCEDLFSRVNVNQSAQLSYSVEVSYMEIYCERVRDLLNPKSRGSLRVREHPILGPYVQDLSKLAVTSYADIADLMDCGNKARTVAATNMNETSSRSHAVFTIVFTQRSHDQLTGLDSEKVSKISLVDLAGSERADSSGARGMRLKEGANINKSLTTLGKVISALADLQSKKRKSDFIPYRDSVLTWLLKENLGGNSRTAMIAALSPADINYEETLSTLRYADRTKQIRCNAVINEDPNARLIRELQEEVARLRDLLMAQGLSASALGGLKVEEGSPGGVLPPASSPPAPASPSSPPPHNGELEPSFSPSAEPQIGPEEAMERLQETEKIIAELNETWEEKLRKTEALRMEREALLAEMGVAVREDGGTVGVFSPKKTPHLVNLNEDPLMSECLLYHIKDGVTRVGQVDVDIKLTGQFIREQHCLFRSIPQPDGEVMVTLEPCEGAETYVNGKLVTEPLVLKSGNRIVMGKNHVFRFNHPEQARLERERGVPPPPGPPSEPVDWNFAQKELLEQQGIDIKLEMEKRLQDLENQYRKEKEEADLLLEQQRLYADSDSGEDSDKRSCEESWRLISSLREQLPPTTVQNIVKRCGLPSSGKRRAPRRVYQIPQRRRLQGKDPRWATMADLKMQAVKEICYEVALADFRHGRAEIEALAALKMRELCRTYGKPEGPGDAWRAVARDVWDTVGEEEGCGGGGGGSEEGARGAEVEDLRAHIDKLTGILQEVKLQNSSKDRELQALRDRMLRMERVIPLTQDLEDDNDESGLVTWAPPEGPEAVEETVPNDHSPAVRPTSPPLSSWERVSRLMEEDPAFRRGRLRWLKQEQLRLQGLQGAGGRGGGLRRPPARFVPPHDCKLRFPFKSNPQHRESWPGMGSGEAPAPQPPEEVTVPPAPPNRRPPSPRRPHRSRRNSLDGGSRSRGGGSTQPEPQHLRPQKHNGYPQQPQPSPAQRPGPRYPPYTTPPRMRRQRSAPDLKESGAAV

Regarding brefeldin A [BFA], in experiment [1], the “Susceptibility of susceptible macrophages to intoxication with LF in the presence of BFA” value is given as “unaltered”. In addition, in experiment [2], the “Relocalization of KiflC” value was “dramatic relocalization of KiflC to the Endoplasmic Reticulum”.
